Tested on: 677734-321-R-J1-PDC complex spheroid viability
Assay: Anticancer human tumor 677734-321-R-J1-PDC patient-derived soft tissue sarcoma cell line growth inhibition [POLQ]
Details: for IC50: curve of first compound; for viability, T/C: stronger effect = lower value; active = viability on the fitted dose curve at most 10% of control; inactive = the rest
Experimental: Multicellular complex tumor spheroid response to Polymerase (POL) inhibitors (novobiocin, ART-558, RP6685) in combination with a variety of drugs and investigational agents in selected tumor cell lines
The POL inhibitors (novobiocin, ART-558, and RP6685) were evaluated both individually and in combination with standard of care and investigational anticancer small molecules within a complex spheroid model of solid tumors. . Complex spheroids include a stromal component modeled by human endothelial cells (HUVEC) and fibroblasts modeled by human mesenchymal stem cells (MSCs). The concentration ranges selected for each drug and investigational agent were based upon clinically achievable concentrations if the clinical Cmax of the agent was known.
Compounds. The drugs and investigational agents: novobiocin (NSC847541), ART-558 (NSC835418), RP-6685 (NSC848927), peposertib (NSC802822), ceralasertib (NSC780249), elimusertib (NSC800525), camonsertib (NSC841442), AZD-1390 (NSC803789), olaparib (NSC753686), talazoparib (NSC767125), rucaparib (NSC756644), sotorasib (NSC818433), MRTX-1133 (NSC836407), SN-38 (NSC673596), topotecan (NSC609699), epotoside (NSC141540), doxorubicin (NSC123127), gemcitabine (NSC613327), 5-fluorouracil (NSC19893), paclitaxel (NSC125973), vemurafenib (NSC761431), MSA-2 (NSC828583), SN-011 (NSC837082), adavosertib (NSC754352), prexasertib (NSC758257), carboplatin (NSC241240) and oxaliplatin (NSC266046), were obtained from the National Cancer Institute (NCI) Developmental Therapeutics Program Chemical Repository (21). The FDA-approved anticancer drug set is available from the Developmental Therapeutics Program at https://dtp.cancer.gov/organization/dscb/obtaining/. […] The stock solutions were prepared in dimethyl sulfoxide (DMSO, Sigma-Aldrich, St. Louis, MO, cat. D2650), except for the platinum compounds which were prepared in saline (Quality Biological, Gaithersburg, MD, cat. 114-055-101), at 800-fold the tested concentration and stored at -70 degrees C prior to their use. All drugs and investigational agents were tested over a range starting from a high concentration at or near the clinical Cmax and decreasing in half-log increments. If the clinical Cmax for an agent had not been determined, the highest concentration tested was 10 microM, except for SN-38, which was tested at a high concentration of 1 microM.
Cell Culture. All cells were maintained in an incubator at 37 degrees C and 5% CO2 with 95% humidity. The PDC lines were cultured according to standard operating procedures established by the NCI PDMR (https://pdmr.cancer.gov). Table 3 of the manuscript, lists the cell lines along with the number of the three cell types plated to form the mct-spheroids and media for tumor cell growth. After thawing, all PDC lines, except 997537-175-T-J1-PDC and 415267-285-R-J2-PDC, were cultured in Matrigel-coated flasks prepared with a working solution of 1X Ham's F-12 nutrient mix, without supplementation (Thermo Fisher Scientific, cat. 11765054), 100 U/mL penicillin-streptomycin (Thermo Fisher Scientific, cat. 15140122), and 2.5% Matrigel (Corning Inc., Corning, NY, cat. 354248) for the first three passages. The two PDC lines 997537-175-T-J1-PDC and 415267-285-R-J2-PDC were cultured on uncoated flasks. The 857933-349-R-J2-PDC line was cultured in 6C/Colon 1B media containing advanced DMEM/F-12 (Thermo Fisher Scientific, cat. 12634028), 10 mM HEPES (Thermo Fisher Scientific, cat. 15630080), 1X GlutaMAX supplement (Thermo Fisher Scientific, cat. 35050061), 0.1 mg/mL primocin (InvivoGen, San Diego, CA, cat. ant-pm-2), 10% defined fetal bovine serum, heat inactivated (HyClone Laboratories Inc., Logan, UT, cat. SH30070.03HI), 50% L-WRN conditioned media (ATCC, cat. CRL-3276), 1.25 mM N-Acetyl-L-cysteine (Sigma-Aldrich, cat. A9165), 10 mM nicotinamide (Sigma-Aldrich, cat. N0636), 1X B-27 supplement (Thermo Fisher Scientific, cat. 17504044), 1X N-2 supplement (Thermo Fisher Scientific, cat. […]

[1] = second compound 0.0316 µM, first compound 0.0316 µM
[2] = second compound 0.0316 µM, first compound 0.1 µM
[3] = second compound 0.0316 µM, first compound 0.316 µM
[4] = second compound 0.0316 µM, first compound 1 µM
[5] = second compound 0.1 µM, first compound 0.0316 µM
[6] = second compound 0.1 µM, first compound 0.1 µM
[7] = second compound 0.1 µM, first compound 0.316 µM
[8] = second compound 0.1 µM, first compound 1 µM
[9] = second compound 0.316 µM, first compound 0.0316 µM
[10] = second compound 0.316 µM, first compound 0.1 µM
[11] = second compound 0.316 µM, first compound 0.316 µM
[12] = second compound 0.316 µM, first compound 1 µM
[13] = second compound 1 µM, first compound 0.0316 µM
[14] = second compound 1 µM, first compound 0.1 µM
[15] = second compound 1 µM, first compound 0.316 µM
[16] = second compound 1 µM, first compound 1 µM
[17] = second compound 3.16 µM, first compound 0.0316 µM
[18] = second compound 3.16 µM, first compound 0.1 µM
[19] = second compound 3.16 µM, first compound 0.316 µM
[20] = second compound 3.16 µM, first compound 1 µM
[21] = second compound 10 µM, first compound 0.0316 µM
[22] = second compound 10 µM, first compound 0.1 µM
[23] = second compound 10 µM, first compound 0.316 µM
[24] = second compound 10 µM, first compound 1 µM
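Also: spheroids exposed to compounds for one week.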
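For viability, T/C in this document: 100% = vehicle DMSO treated spheroids.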

CNCc1ccc(-c2[nH]c3cc(F)cc4c3c2CCNC4=O)cc1 + COC1C(OC(N)=O)C(O)C(Oc2ccc3c(O)c(NC(=O)c4ccc(O)c(CC=C(C)C)c4)c(=O)oc3c2C)OC1(C)C
> 10000 nM: IC50 (second compound 0.0316 µM) | IC50 (second compound 0.1 µM) | IC50 (second compound 0.316 µM) | IC50 (second compound 1 µM) | IC50 (second compound 3.16 µM) | IC50 (second compound 10 µM)
inactive: viability, T/C [1] 101% | viability, T/C [2] 103% | viability, T/C [3] 96.6% | viability, T/C [4] 107% | viability, T/C (second compound 0.0316 µM, first compound 3.16 µM) 111% | viability, T/C (second compound 0.0316 µM, first compound 10 µM) 103% | viability, T/C [5] 103% | viability, T/C [6] 101% | viability, T/C [7] 101% | viability, T/C [8] 109% | viability, T/C (second compound 0.1 µM, first compound 3.16 µM) 104% | viability, T/C (second compound 0.1 µM, first compound 10 µM) 96.5% | viability, T/C [9] 107% | viability, T/C [10] 102% | viability, T/C [11] 106% | viability, T/C [12] 106% | viability, T/C (second compound 0.316 µM, first compound 3.16 µM) 104% | viability, T/C (second compound 0.316 µM, first compound 10 µM) 103% | viability, T/C [13] 114% | viability, T/C [14] 99.8% | viability, T/C [15] 101% | viability, T/C [16] 107% | viability, T/C (second compound 1 µM, first compound 3.16 µM) 106% | viability, T/C (second compound 1 µM, first compound 10 µM) 104% | viability, T/C [17] 102% | viability, T/C [18] 106% | viability, T/C [19] 100% | viability, T/C [20] 110% | viability, T/C (second compound 3.16 µM, first compound 3.16 µM) 108% | viability, T/C (second compound 3.16 µM, first compound 10 µM) 101% | viability, T/C [21] 106% | viability, T/C [22] 102% | viability, T/C [23] 106% | viability, T/C [24] 108% | viability, T/C (second compound 10 µM, first compound 3.16 µM) 105% | viability, T/C (second compound 10 µM, first compound 10 µM) 101%

COc1cccc(OCCCN)c1-c1cc(Nc2cnc(C#N)cn2)n[nH]1 + COC1C(OC(N)=O)C(O)C(Oc2ccc3c(O)c(NC(=O)c4ccc(O)c(CC=C(C)C)c4)c(=O)oc3c2C)OC1(C)C
7.05 nM: IC50 (second compound 0.316 µM)
8.14 nM: IC50 (second compound 1 µM)
7.32 nM: IC50 (second compound 10 µM)
7.37 nM: IC50 (second compound 3.16 µM)
7.48 nM: IC50 (second compound 0.1 µM)
7.45 nM: IC50 (second compound 0.0316 µM)
active: viability, T/C [2] 9.46% | viability, T/C [3] 8.59% | viability, T/C [4] 8.45% | viability, T/C [6] 8.91% | viability, T/C [7] 9.88% | viability, T/C [8] 7.56% | viability, T/C [10] 9.01% | viability, T/C [11] 10.5% | viability, T/C [12] 7.41%
inactive: viability, T/C (second compound 0.0316 µM, first compound 0.00316 µM) 97.1% | viability, T/C (second compound 0.0316 µM, first compound 0.01 µM) 33.8% | viability, T/C [1] 12.8% | viability, T/C (second compound 0.1 µM, first compound 0.00316 µM) 92.5% | viability, T/C (second compound 0.1 µM, first compound 0.01 µM) 35.6% | viability, T/C [5] 11.9% | viability, T/C (second compound 0.316 µM, first compound 0.00316 µM) 97.3% | viability, T/C (second compound 0.316 µM, first compound 0.01 µM) 29% | viability, T/C [9] 14.7% | viability, T/C (second compound 1 µM, first compound 0.00316 µM) 102% | viability, T/C (second compound 1 µM, first compound 0.01 µM) 38.5% | viability, T/C [13] 9.9% | viability, T/C [14] 11.4% | viability, T/C [15] 11.9% | viability, T/C [16] 8.34% | viability, T/C (second compound 3.16 µM, first compound 0.00316 µM) 103% | viability, T/C (second compound 3.16 µM, first compound 0.01 µM) 30.6% | viability, T/C [17] 11.9% | viability, T/C [18] 9.84% | viability, T/C [19] 12.3% | viability, T/C [20] 9.73% | viability, T/C (second compound 10 µM, first compound 0.00316 µM) 88.4% | viability, T/C (second compound 10 µM, first compound 0.01 µM) 35.7% | viability, T/C [21] 12.3% | viability, T/C [22] 12% | viability, T/C [23] 10.3% | viability, T/C [24] 9.04%
